# Assay results published in paper PMC9822021, “Biological Activity of Amidino-Substituted Imidazo [4,5-b]pyridines” (Molecules, 2022).
# What was measured:
# [1] = tested on: Z-138 non-Hodgkin lymphoma cells; experiment: In vitro antiproliferative activity, MTS proliferation assay; format: cell-based, human
# Text: (§1) Human cancer cell lines used in this manuscript, namely Capan-1, HCT-116, NCI-H460, LN-229, HL-60, K-562, Z-138, SW620, PC3 and HeLa, were acquired from the American Type Culture Collection (ATCC, Manassas, VA, USA), while the DND-41 cell line was purchased from the Deutsche Sammlung von Mikroorganismen und Zellkulturen (DSMZ Leibniz-Institut, Germany). Culture media were purchased from Gibco Life Technologies, USA, and supplemented with 10% fetal bovine serum (HyClone, GE Healthcare Life Sciences, Chicago, IL, USA), except for the media for SW620, PC3 and HeLa cells, which were purchased from Sigma.
# (§2) Adherent cell lines LN-229, HCT-116, NCI-H460 and Capan-1 cells were seeded at a density between 500 and 1500 cells per well in 384-well tissue culture plates (Greiner). […]. Cells were incubated for 72 h with compounds and were then analyzed using the CellTiter 96® AQueous One Solution Cell Proliferation Assay (MTS) reagent (Promega) according to the manufacturer’s instructions. Absorbance of the samples was measured at 490 nm using a SpectraMax Plus 384 (Molecular Devices), and OD values were used to calculate the 50% inhibitory concentration (IC50). Compounds were tested in two independent experiments. SW620, PC3 and HeLa cells were seeded in 96-well microtiter plates at 1 × 10^4 to 3 × 10^4 cells/mL, depending on the doubling times of the specific cell line. Test agents were then added in five 10-fold dilutions (10^−8 to 10^−4 M). Working dilutions were freshly prepared on the day of testing. After 72 h of incubation, the cell growth rate was evaluated using the MTT assay as described previously. Absorbance of the samples was measured at 570 nm, and OD values were used to calculate the 50% inhibitory concentration (IC50). Each test was performed in quadruplicate in at least two individual experiments.
# [2] = tested on: PC3 prostate carcinoma cells; experiment: In vitro antiproliferative activity, MTT assay; format: cell-based; settings: Homo sapiens, 72 h
# Text: as §1, §2
# [3] = tested on: HeLa cervical carcinoma cells; experiment: In vitro antiproliferative activity, MTT assay; format: cell-based; settings: Homo sapiens, 72 h
# Text: as §1, §2
# [4] = tested on: SW620 colon carcinoma cells; experiment: In vitro antiproliferative activity, MTT assay; format: cell-based; settings: Homo sapiens, SW-620, 72 h
# Text: as §1, §2
# S. Pneumoniae ATCC 49619 = experiment: Antibacterial activity in vitro, broth microdilution; format: cell-based; settings: Streptococcus pneumoniae, ATCC49619; broth microdilution (CLSI), 16–24 h at 37 °C
# Experimental: (§3) Synthesized compounds were prepared as 10 mM DMSO solutions and tested in a final concentration range of 100–0.2 µM [34].
# (§4) Broth microdilution testing was performed according to CLSI (Clinical Laboratory Standards Institute) guidelines. MIC (minimal inhibitory concentration) values were defined as the last tested concentration of the compound at which there was no visible growth of bacteria. Inoculums for each microorganism were prepared using the direct colony suspension method, where broth solutions that achieved turbidity equivalent to 0.5 McFarland standard were additionally diluted 100× with Ca-adjusted MH media (Becton Dickinson).
# S. aureus ATCC 29213 = experiment: as above; format: cell-based; settings: Staphylococcus aureus, ATCC29213; broth microdilution (CLSI), 16–24 h at 37 °C
# Experimental: as §3, §4
# E. coli ATCC 25922 = experiment: as above; format: cell-based; settings: Escherichia coli, ATCC25922; broth microdilution (CLSI), 16–24 h at 37 °C
# Experimental: as §3, §4
# in vitro [5] = experiment: in vitro
# in vitro [6] = settings: human
# E. coli Efflux Del = experiment: microbe, parasite or virus in culture; format: cell-based; settings: Escherichia coli, read-out: MIC E. coli Efflux Del
# Experimental: as §3, §4
# [7] = tested on: HL-60 acute myeloid leukemia cells; experiment: In vitro antiproliferative activity, MTS proliferation assay; format: cell-based; settings: Homo sapiens, 72 h
# Experimental: (§5) Culture media were purchased from Gibco Life Technologies, USA, and supplemented with 10% fetal bovine serum (HyClone, GE Healthcare Life Sciences, Chicago, IL, USA), except for the media for SW620, PC3 and HeLa cells, which were purchased from Sigma.
# (§6) Cells were incubated for 72 h with compounds and were then analyzed using the CellTiter 96® AQueous One Solution Cell Proliferation Assay (MTS) reagent (Promega) according to the manufacturer’s instructions. […] Compounds were tested in two independent experiments. SW620, PC3 and HeLa cells were seeded in 96-well microtiter plates at 1 × 10^4 to 3 × 10^4 cells/mL, depending on the doubling times of the specific cell line. Test agents were then added in five 10-fold dilutions (10^−8 to 10^−4 M). Working dilutions were freshly prepared on the day of testing. After 72 h of incubation, the cell growth rate was evaluated using the MTT assay as described previously. […] Each test was performed in quadruplicate in at least two individual experiments.
# [8] = tested on: DND-41 acute lymphoblastic leukemia cells; experiment: as above; format: cell-based; settings: Homo sapiens, DND41, 72 h
# Experimental: as §5, §6
# [9] = tested on: Capan-1 pancreatic adenocarcinoma cells; experiment: as above; format: cell-based; settings: Homo sapiens, 72 h
# Experimental: as §5, §6
# [10] = tested on: K-562 chronic myeloid leukemia cells; experiment: as above; format: cell-based; settings: Homo sapiens, K562, 72 h
# Text: as §1, §2
# [11] = tested on: LN-229 glioblastoma cells; experiment: as above; format: cell-based; settings: Homo sapiens, 72 h
# Text: as §1, §2
# [12] = tested on: NCI-H460 lung carcinoma cells; experiment: as above; format: cell-based; settings: Homo sapiens, 72 h
# Text: as §1, §2
# [13] = tested on: HCT-116 colorectal carcinoma cells; experiment: as above; format: cell-based; settings: Homo sapiens, 72 h
# Text: as §1, §2
# in vitro [14] = settings: human; remark: listed apart in the source
# in vitro [15] = settings: dog
# [16] = Cytotoxicity in virus host cell line, MTS assay; settings: dog
# [17] = tested on: Influenza H1N1 (A/Ned/378/05); experiment: Antiviral CPE reduction assay; format: cell-based; settings: Influenza A virus, MDCK cells
# [18] = tested on: Influenza B (B/Ned/537/05); experiment: Antiviral CPE reduction assay; format: cell-based; settings: Influenza B virus, MDCK cells
# [19] = tested on: Influenza H3N2 (A/HK/7/87); experiment: Antiviral CPE reduction assay; format: cell-based; settings: Influenza A virus, MDCK cells
# [20] = tested on: panel of cancer cell lines (LN-229, Capan-1, HCT-116, NCI-H460, DND-41, HL-60, K-562, Z-138); experiment: In vitro antiproliferative activity, whole panel of Table 1 (MTS); format: cell-based; settings: Homo sapiens, range over eight cell lines, 72 h, read-out: IC50 values ranging over the panel of cancer cell lines of Table 1
# Text: as §1
# (§7) Adherent cell lines LN-229, HCT-116, NCI-H460 and Capan-1 cells were seeded at a density between 500 and 1500 cells per well in 384-well tissue culture plates (Greiner). […]. Cells were incubated for 72 h with compounds and were then analyzed using the CellTiter 96® AQueous One Solution Cell Proliferation Assay (MTS) reagent (Promega) according to the manufacturer’s instructions. Absorbance of the samples was measured at 490 nm using a SpectraMax Plus 384 (Molecular Devices), and OD values were used to calculate the 50% inhibitory concentration (IC50). Compounds were tested in two independent experiments. […] After 72 h of incubation, the cell growth rate was evaluated using the MTT assay as described previously. […]
# YFV 17D = experiment: microbe, parasite or virus in culture; format: cell-based; settings: Yellow fever virus, Huh-7, read-out: EC50 YFV 17D Huh7
# [21] = tested on: SW620, HeLa and PC3 cancer cell lines; experiment: In vitro antiproliferative activity, all three selected cell lines (MTT); format: cell-based; settings: Homo sapiens, range over three cell lines, 72 h
# Text: as §1, §7
# HCoV NL63 = experiment: Antiviral CPE reduction assay; format: cell-based; settings: Human coronavirus NL63, Huh-7, Huh7 cells
# Zika mr766 = experiment: Antiviral CPE reduction assay; format: cell-based; settings: Zika virus, Huh-7, Huh7 cells
# Sindbis = experiment: Antiviral CPE reduction assay; format: cell-based; settings: Sindbis virus, Huh-7, Huh7 cells
# HCoV OC43 = experiment: Antiviral CPE reduction assay; format: cell-based, human coronavirus OC43; settings: Betacoronavirus 1, OC43, HEL 299 cells
# HCoV 229E = experiment: Antiviral CPE reduction assay; format: cell-based; settings: Human coronavirus 229E, HEL 299 cells
# HSV-1 KOS = experiment: Antiviral CPE reduction assay; format: cell-based, herpes simplex virus-1; settings: Human alphaherpesvirus 1
# RSV A Long = experiment: Antiviral CPE reduction assay; format: cell-based, respiratory syncytial virus A; settings: human respiratory syncytial virus; CPE reduction, HEL 299 cells
Structure (SMILES),"IC50 ([1]; Homo sapiens, Z-138, 72 h)",IC50 [2],IC50 [3],IC50 [4],MIC (S. Pneumoniae ATCC 49619),MIC (S. aureus ATCC 29213),MIC (E. coli ATCC 25922),CC50 (in vitro [6]),melting point,MIC (E. coli Efflux Del),IC50 [7],IC50 [8],IC50 [9],IC50 [10],IC50 [11],IC50 [12],IC50 [13],CC50 (in vitro [14]),CC50 (in vitro [15]),EC50 [17],also measured
"CC(C)NC(=N)c1ccc(-c2nc3ncccc3[nH]2)cc1.Cl [Compound 13, 4-(1H-Imidazo[4,5-b]pyridin-2-yl)-N-isopropylbenzimidamide Hydrochloride]",> 100 µM,> 100 µM,> 100 µM,> 100 µM,> 64 µM,> 64 µM,> 64 µM,81.1 ± 26.8 µM,293 to 295 °C,> 64 µM,> 100 µM,> 100 µM,> 100 µM,> 100 µM,> 100 µM,> 100 µM,> 100 µM,> 100 µM,> 100 µM,,CC50 (in vitro [5]): > 30 µM
"CC(N)C12CC3CC(CC(C3)C1)C2 (centres unmarked) [Rimantadine, rimantadine, reference compound]",,,,,,,,,,,,,,,,,,,,4.4 ± 4.2 µM,CC50 [16]: > 100 µM; EC50 [18]: > 100 µM; EC50 [19]: 0.05 ± 0.05 µM
"Brc1cnc2nc(-c3ccc(C4=NCCN4)cc3)[nH]c2c1.Cl [Compound 14, 6-Bromo-2-(4-(4,5-dihydro-1H-imidazol-2-yl)phenyl)-1H-imidazo[4,5-b]pyridine Hydrochloride]",8.4 µM,1.5 ± 0.5 µM,4.3 ± 2.6 µM,0.7 ± 0.3 µM,> 64 µM,> 64 µM,> 64 µM,,> 300 °C,32 µM,9.5 ± 1.3 µM,10.8 ± 0.4 µM,9.4 ± 0.4 µM,49.7 ± 3.1 µM,8 ± 1.8 µM,13 ± 7.6 µM,13.6 ± 2.8 µM,,33.9 ± 0.1 µM,,IC50 ([1]; 72 h): 8.5 ± 2 µM; IC50 [20]: 8 to 49.7 µM
"N#Cc1ccc(-c2nc3ncc(Br)cc3[nH]2)cc1 [Compound 8, 4-(6-Bromo-1H-imidazo[4,5-b]pyridin-2-yl)benzonitrile]",> 100 µM,3.2 ± 0.7 µM,1.8 ± 0.02 µM,2 ± 0.2 µM,> 64 µM,> 64 µM,> 64 µM,> 100 µM,> 300 °C,> 64 µM,> 100 µM,> 100 µM,> 100 µM,> 100 µM,> 100 µM,> 100 µM,> 100 µM,> 100 µM,> 100 µM,72.4 ± 8 µM,EC50 (YFV 17D): > 100 µM; IC50 [21]: 1.8 to 3.2 µM; EC50 (HCoV NL63): > 100 µM; EC50 (Zika mr766): > 100 µM; EC50 (Sindbis): > 100 µM; EC50 (HCoV OC43): > 100 µM; EC50 [18]: 56.7 ± 10.2 µM; EC50 (HCoV 229E): > 100 µM; EC50 [19]: 35.9 ± 12.4 µM; EC50 (HSV-1 KOS): > 100 µM; EC50 (RSV A Long): > 100 µM
